Results from patent publication US11655225B2, “Antimycobacterial heterocyclic amides” (Crestone, Inc., priority 2018, dated 2023).
Values after ≈ are worked out from the molar mass of the structure shown.

System: M. abscessus
Experiment: MIC determination, CLSI M24-A
Assay type: cell-based
Conditions: Mycobacteroides abscessus, CLSI M24-A

SMILES	MIC [µg/mL]
CC1CCC(C(=O)Nc2nc3ccc(OC(F)(F)F)cc3s2)C1 (stereo not drawn) [Example 102, 3-methyl-N-[6-(trifluoromethoxy)-1,3-benzothiazol-2-yl]cyclopentane-1-carboxamide]	2 to 32 (≈ 5.81 to 92.9 µM)
CC1(C(=O)Nc2nc3c(F)c(F)c(F)cc3s2)CCCCCC1 [Example 103, 1-methyl-N-(4,5,6-trifluoro-1,3-benzothiazol-2-yl)cycloheptane-1-carboxamide]	2 to 32 (≈ 5.84 to 93.5 µM)
CC1(C(=O)Nc2nc3ccc(OC(F)(F)F)cc3s2)CC2CCC1C2 (stereo not drawn) [Example 104, 2-methyl-N-[6-(trifluoromethoxy)-1,3-benzothiazol-2-yl]bicyclo[2.2.1]heptane-2-carboxamide]	2 to 32 (≈ 5.4 to 86.4 µM)
CC1(C(=O)Nc2cc3ccccc3s2)CCCCC1 [Example 105, N-(1-benzothiophen-2-yl)-1-methylcyclohexane-1-carboxamide]	2 to 32 (≈ 7.32 to 117 µM)
Cc1cc2nc(NC(=O)C3(C)CCCCC3)sc2c(C)c1Br [Example 106, N-(6-bromo-5,7-dimethyl-1,3-benzothiazol-2-yl)-1-methylcyclohexane-1-carboxamide]	2 to 32 (≈ 5.24 to 83.9 µM)
O=C(Nc1nc2ccc(Cl)cc2s1)C12CC3CC(CC(C3)C1)C2 [Example 107, N-(6-chloro-1,3-benzothiazol-2-yl)adamantane-1-carboxamide]	2 to 32 (≈ 5.77 to 92.3 µM)
O=C(Nc1nc2ccc(OC(F)F)cc2s1)C1CCCCCCC1 [Example 108, N-[6-(difluoromethoxy)-1,3-benzothiazol-2-yl]cyclooctanecarboxamide]	2 to 32 (≈ 5.64 to 90.3 µM)
O=C(Nc1nc2c(F)cc(F)cc2s1)C1CCCCCCC1 [Example 109, N-(4,6-difluoro-1,3-benzothiazol-2-yl)cyclooctanecarboxamide]	2 to 32 (≈ 6.17 to 98.6 µM)
O=C(Nc1nc2ccc(Cl)cc2s1)C1CCCCCCC1 [Example 110, N-(6-chloro-1,3-benzothiazol-2-yl)cyclooctanecarboxamide]	2 to 32 (≈ 6.19 to 99.1 µM)
CCOc1ccc2nc(NC(=O)C34CC5CC(C)(CC(C)(C5)C3)C4)sc2c1 [Example 111, N-(6-ethoxy-1,3-benzothiazol-2-yl)-3,5-dimethyladamantane-1-carboxamide]	2 to 32 (≈ 5.2 to 83.2 µM)
CC12CC3CC(C)(C1)CC(C(=O)Nc1nc4cc(Cl)c(Cl)cc4o1)(C3)C2 [Example 112, N-(5,6-dichloro-1,3-benzoxazol-2-yl)-3,5-dimethyladamantane-1-carboxamide]	2 to 32 (≈ 5.08 to 81.4 µM)
CC1CC(C(=O)Nc2nc3cc(Cl)c(Cl)cc3o2)CC(C)(C)C1 (stereo not drawn) [Example 113, N-(5,6-dichloro-1,3-benzoxazol-2-yl)-3,3,5-trimethylcyclohexane-1-carboxamide]	2 to 32 (≈ 5.63 to 90.1 µM)
CC1CC(C(=O)Nc2nc3cc(Cl)ccc3o2)CC(C)(C)C1 (stereo not drawn) [Example 114, N-(5-chloro-1,3-benzoxazol-2-yl)-3,3,5-trimethylcyclohexane-1-carboxamide]	2 to 32 (≈ 6.23 to 99.7 µM)
CC12CC3CC(C)(C1)CC(C(=O)Nc1nc4ccc(Br)cc4o1)(C3)C2 [Example 115, N-(6-bromo-1,3-benzoxazol-2-yl)-3,5-dimethyladamantane-1-carboxamide]	2 to 32 (≈ 4.96 to 79.3 µM)
O=C(Nc1nc2c(F)c(F)c(F)cc2s1)C1CCCCCCC1 [Example 116, N-(4,5,6-trifluoro-1,3-benzothiazol-2-yl)cyclooctanecarboxamide]	2 to 32 (≈ 5.84 to 93.5 µM)
CC12CC3CC(C)(C1)CC(C(=O)Nc1nc4ccc(Cl)cc4o1)(C3)C2 [Example 117, N-(6-chloro-1,3-benzoxazol-2-yl)-3,5-dimethyladamantane-1-carboxamide]	2 to 32 (≈ 5.57 to 89.2 µM)
CC1CC(C(=O)Nc2nc3ccc(Cl)cc3o2)CC(C)(C)C1 (stereo not drawn) [Example 118, N-(6-chloro-1,3-benzoxazol-2-yl)-3,3,5-trimethylcyclohexane-1-carboxamide]	2 to 32 (≈ 6.23 to 99.7 µM)
CC12CC3CC(C)(C1)CC(C(=O)Nc1nc4cc(F)c(F)cc4[nH]1)(C3)C2 [Example 119, N-(5,6-difluoro-1H-1,3-benzodiazol-2-yl)-3,5-dimethyladamantane-1-carboxamide]	2 to 32 (≈ 5.56 to 89 µM)
